Measured values published in patent US11109593B2, “Isoxazolin-5-one derivative and herbicide containing same as active ingredient” (HOKKO CHEMICAL INDUSTRY CO., LTD., priority 2017, dated 2021).

These molecules were tested on Echinochloa crus-galli (assay: Test Example 1: herbicidal effect test by treatment of rice paddy soil (immediately after seeding)). Conditions: 120 g/10a active ingredient, dry weight vs untreated area, 14 days after treatment.
Format: in vivo
Method in brief: (§1)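 Flooded paddy pot test in a glass greenhouse: emulsion diluted in water, dropped at 120 g a.i. per 10 ares just after sowing, water depth kept about 3 cm. Dry-weight reduction relative to untreated plants is scored at 14 days.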
For `Cc1c(Cc2ccccc2N(C(=O)C(C)C)S(=O)(=O)C(F)(F)F)c(=O)on1CC(C)(C)C` [Compound 1-333], the “Herbicidal rate (%) Echinochloa crus-galli” value was 90%. In the case of `CCC(C)n1oc(=O)c(Cc2ccccc2N(C(=O)C2CC2)S(=O)(=O)C(F)(F)F)c1C` (centres unmarked) [Compound 1-404], the “Herbicidal rate (%) Echinochloa crus-galli” value is reported as 90%.

What follows are molecules tested on Scirpus juncoides in the same assay as above. Conditions: 120 g/10a active ingredient, dry weight vs untreated area, 14 days after treatment.
Format: in vivo
Method in brief: as §1
With `Cc1c(Cc2ccccc2N(C(=O)C(C)C)S(=O)(=O)C(F)(F)F)c(=O)on1CC(C)(C)C` [Compound 1-333] the “Herbicidal rate (%) Scirpus juncoides” value was 90%. `CCC(C)n1oc(=O)c(Cc2ccccc2N(C(=O)C2CC2)S(=O)(=O)C(F)(F)F)c1C` (centres unmarked) [Compound 1-404] was tested, and the “Herbicidal rate (%) Scirpus juncoides” value was 90%.

The molecules below were run on broad leaf weeds (Lindernia pyxidaria and Monochoria vaginalis) in the same assay as above. Conditions: Lindernia pyxidaria, 120 g/10a active ingredient, dry weight vs untreated area, 14 days after treatment.
Format: in vivo
Method in brief: as §1
In the case of `Cc1c(Cc2ccccc2N(C(=O)C(C)C)S(=O)(=O)C(F)(F)F)c(=O)on1CC(C)(C)C` [Compound 1-333], the “Herbicidal rate (%) Lindernia pyxidaria” value is reported as 90%. `CCC(C)n1oc(=O)c(Cc2ccccc2N(C(=O)C2CC2)S(=O)(=O)C(F)(F)F)c1C` (centres unmarked) [Compound 1-404] was tested, and the “Herbicidal rate (%) Lindernia pyxidaria” value was 90%.

Same assay, conditions: Monochoria vaginalis, 120 g/10a active ingredient, dry weight vs untreated area, 14 days after treatment
In the case of `Cc1c(Cc2ccccc2N(C(=O)C(C)C)S(=O)(=O)C(F)(F)F)c(=O)on1CC(C)(C)C` [Compound 1-333], the “Herbicidal rate (%) Monochoria vaginalis” value is reported as 90%. With `CCC(C)n1oc(=O)c(Cc2ccccc2N(C(=O)C2CC2)S(=O)(=O)C(F)(F)F)c1C` (centres unmarked) [Compound 1-404] the “Herbicidal rate (%) Monochoria vaginalis” value was 90%.

Each molecule was assayed on Echinochloa crus-galli (assay: Test Example 2: herbicidal effect test by treatment during growing period in paddy rice cultivation (seven days after seeding)). Conditions: 120 g/10a active ingredient, assessed 14 days after treatment, dry weight vs untreated area.
Format: in vivo
Method in brief: (§2)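 Greenhouse flooded-pot test, seeds sown in puddled paddy soil; emulsion applied into water 7 d after seeding, 120 g a.i./10 a. Dry-weight-based herbicidal rate at 14 d, n=2.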
In the case of `Cc1c(Cc2ccccc2N(C(=O)C(C)C)S(=O)(=O)C(F)(F)F)c(=O)on1CC(C)(C)C` [Compound 1-333], the “Herbicidal rate (%) Echinochloa crus-galli” value is reported as 90%. With `CCC(C)n1oc(=O)c(Cc2ccccc2N(C(=O)C2CC2)S(=O)(=O)C(F)(F)F)c1C` (centres unmarked) [Compound 1-404] the “Herbicidal rate (%) Echinochloa crus-galli” value was 90%.

What follows are molecules tested on Scirpus juncoides in the same assay as above. Conditions: 120 g/10a active ingredient, assessed 14 days after treatment, dry weight vs untreated area.
Format: in vivo
Method in brief: as §2
With `Cc1c(Cc2ccccc2N(C(=O)C(C)C)S(=O)(=O)C(F)(F)F)c(=O)on1CC(C)(C)C` [Compound 1-333] the “Herbicidal rate (%) Scirpus juncoides” value was 90%. `CCC(C)n1oc(=O)c(Cc2ccccc2N(C(=O)C2CC2)S(=O)(=O)C(F)(F)F)c1C` (centres unmarked) [Compound 1-404] was tested, and the “Herbicidal rate (%) Scirpus juncoides” value was 90%.

The molecules below were run on broad leaf weeds (Lindernia pyxidaria and Monochoria vaginalis) in the same assay as above. Conditions: Lindernia pyxidaria, 120 g/10a active ingredient, assessed 14 days after treatment, dry weight vs untreated area.
Format: in vivo
Method in brief: as §2
In the case of `Cc1c(Cc2ccccc2N(C(=O)C(C)C)S(=O)(=O)C(F)(F)F)c(=O)on1CC(C)(C)C` [Compound 1-333], the “Herbicidal rate (%) Lindernia pyxidaria” value is reported as 90%. `CCC(C)n1oc(=O)c(Cc2ccccc2N(C(=O)C2CC2)S(=O)(=O)C(F)(F)F)c1C` (centres unmarked) [Compound 1-404] was tested, and the “Herbicidal rate (%) Lindernia pyxidaria” value was 90%.

Same assay, conditions: Monochoria vaginalis, 120 g/10a active ingredient, assessed 14 days after treatment, dry weight vs untreated area
With `Cc1c(Cc2ccccc2N(C(=O)C(C)C)S(=O)(=O)C(F)(F)F)c(=O)on1CC(C)(C)C` [Compound 1-333] the “Herbicidal rate (%) Monochoria vaginalis” value was 90%. With `CCC(C)n1oc(=O)c(Cc2ccccc2N(C(=O)C2CC2)S(=O)(=O)C(F)(F)F)c1C` (centres unmarked) [Compound 1-404] the “Herbicidal rate (%) Monochoria vaginalis” value was 90%.

The molecules below were run on Amaranthus viridis (assay: Test Example 3: herbicidal effect test by treatment of dry field farming soil (one day after seeding)). Conditions: 120 g/10a active ingredient, evaluated 14 days after treatment.
Format: in vivo
Method in brief: (§3)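 Compound emulsions are sprayed on the soil surface one day after sowing (120 g a.i. per 10 ares) before weeds emerge. Effect is expressed as percent dry-weight reduction versus untreated controls 14 days post-treatment.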
`Cc1c(Cc2ccccc2N(C(=O)C(C)C)S(=O)(=O)C(F)(F)F)c(=O)on1CC(C)(C)C` [Compound 1-333] was tested, and the “herbicidal rate, Amaranthus viridis” value was 90%. For `CCC(C)n1oc(=O)c(Cc2ccccc2N(C(=O)C2CC2)S(=O)(=O)C(F)(F)F)c1C` (centres unmarked) [Compound 1-404], the “herbicidal rate, Amaranthus viridis” value was 90%.

Each molecule was assayed on Chenopodium album in the same assay as above. Conditions: 120 g/10a active ingredient, evaluated 14 days after treatment.
Format: in vivo
Method in brief: as §3
With `Cc1c(Cc2ccccc2N(C(=O)C(C)C)S(=O)(=O)C(F)(F)F)c(=O)on1CC(C)(C)C` [Compound 1-333] the “herbicidal rate, Chenopodium album” value was 90%. For `CCC(C)n1oc(=O)c(Cc2ccccc2N(C(=O)C2CC2)S(=O)(=O)C(F)(F)F)c1C` (centres unmarked) [Compound 1-404], the “herbicidal rate, Chenopodium album” value was 90%.

What follows are molecules tested on Echinochloa crus-galli in the same assay as above. Conditions: 120 g/10a active ingredient, evaluated 14 days after treatment.
Format: in vivo
Method in brief: as §3
For `Cc1c(Cc2ccccc2N(C(=O)C(C)C)S(=O)(=O)C(F)(F)F)c(=O)on1CC(C)(C)C` [Compound 1-333], the “herbicidal rate, Echinochloa crus-galli” value was 90%. `CCC(C)n1oc(=O)c(Cc2ccccc2N(C(=O)C2CC2)S(=O)(=O)C(F)(F)F)c1C` (centres unmarked) [Compound 1-404] was tested, and the “herbicidal rate, Echinochloa crus-galli” value was 90%.

What follows are molecules tested on southern crabgrass in the same assay as above. Conditions: 120 g/10a active ingredient, evaluated 14 days after treatment.
Format: in vivo
Method in brief: as §3
With `Cc1c(Cc2ccccc2N(C(=O)C(C)C)S(=O)(=O)C(F)(F)F)c(=O)on1CC(C)(C)C` [Compound 1-333] the “herbicidal rate, southern crabgrass” value was 90%. `CCC(C)n1oc(=O)c(Cc2ccccc2N(C(=O)C2CC2)S(=O)(=O)C(F)(F)F)c1C` (centres unmarked) [Compound 1-404] was tested, and the “herbicidal rate, southern crabgrass” value was 90%.

Each molecule was assayed on Amaranthus viridis (assay: Test Example 4: herbicidal effect test by treatment of leave and stem in dry field farming (seven days after seeding)). Conditions: 120 g/10a active ingredient; emulsion sprayed seven days after seeding; evaluated 14 days after treatment.
Format: in vivo
Method in brief: (§4)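 Twenty seeds per species were mixed into the top 1 cm of alluvial soil in 36 cm^2 pots; emulsions were sprayed seven days after seeding at 100 L per 10 ares (120 g active ingredient per 10 ares). Herbicidal rate (%) = {1 − treated/untreated mean dry weight} × 100, 14 days after treatment, duplicate.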
`Cc1c(Cc2ccccc2N(C(=O)C(C)C)S(=O)(=O)C(F)(F)F)c(=O)on1CC(C)(C)C` [Compound 1-333] was tested, and the “herbicidal effect (herbicidal rate), Amaranthus viridis” value was 40%. For `CCC(C)n1oc(=O)c(Cc2ccccc2N(C(=O)C2CC2)S(=O)(=O)C(F)(F)F)c1C` (centres unmarked) [Compound 1-404], the “herbicidal effect (herbicidal rate), Amaranthus viridis” value was 40%.

These molecules were tested on Chenopodium album in the same assay as above. Conditions: 120 g/10a active ingredient; emulsion sprayed seven days after seeding; evaluated 14 days after treatment.
Format: in vivo
Method in brief: as §4
With `Cc1c(Cc2ccccc2N(C(=O)C(C)C)S(=O)(=O)C(F)(F)F)c(=O)on1CC(C)(C)C` [Compound 1-333] the “herbicidal effect (herbicidal rate), Chenopodium album” value was 40%. With `CCC(C)n1oc(=O)c(Cc2ccccc2N(C(=O)C2CC2)S(=O)(=O)C(F)(F)F)c1C` (centres unmarked) [Compound 1-404] the “herbicidal effect (herbicidal rate), Chenopodium album” value was 40%.

Each molecule was assayed on Echinochloa crus-galli in the same assay as above. Conditions: 120 g/10a active ingredient; emulsion sprayed seven days after seeding; evaluated 14 days after treatment.
Format: in vivo
Method in brief: as §4
With `Cc1c(Cc2ccccc2N(C(=O)C(C)C)S(=O)(=O)C(F)(F)F)c(=O)on1CC(C)(C)C` [Compound 1-333] the “herbicidal effect (herbicidal rate), Echinochloa crus-galli” value was 90%. For `CCC(C)n1oc(=O)c(Cc2ccccc2N(C(=O)C2CC2)S(=O)(=O)C(F)(F)F)c1C` (centres unmarked) [Compound 1-404], the “herbicidal effect (herbicidal rate), Echinochloa crus-galli” value was 90%.

These molecules were tested on southern crabgrass in the same assay as above. Conditions: 120 g/10a active ingredient; emulsion sprayed seven days after seeding; evaluated 14 days after treatment.
Format: in vivo
Method in brief: as §4
`Cc1c(Cc2ccccc2N(C(=O)C(C)C)S(=O)(=O)C(F)(F)F)c(=O)on1CC(C)(C)C` [Compound 1-333] was tested, and the “herbicidal effect (herbicidal rate), southern crabgrass” value was 90%. In the case of `CCC(C)n1oc(=O)c(Cc2ccccc2N(C(=O)C2CC2)S(=O)(=O)C(F)(F)F)c1C` (centres unmarked) [Compound 1-404], the “herbicidal effect (herbicidal rate), southern crabgrass” value is reported as 90%.
